The values that follow come from ChEMBL document CHEMBL4387768, “New dual ligands for the D2 and 5-HT1A receptors from the group of 1,8-naphthyl derivatives of LCAP” (Bioorg Med Chem Lett, 2019).

Broadly, the Ki is the dissociation constant of the complex between target and ligand, obtained from inhibition or displacement.

Format in all cases: cell-based
One assay has as its target D(2) dopamine receptor (Homo sapiens, UniProt P14416). Briefly: Displacement of [3H]-raclopride from recombinant human D2L receptor expressed in HEK293 cells measured after 1 hr by microbeta counting method.
Assay [1] addresses T1, 5-hydroxytryptamine receptor 1A (Homo sapiens, UniProt P08908).
T1 sequence (P08908 whole entry): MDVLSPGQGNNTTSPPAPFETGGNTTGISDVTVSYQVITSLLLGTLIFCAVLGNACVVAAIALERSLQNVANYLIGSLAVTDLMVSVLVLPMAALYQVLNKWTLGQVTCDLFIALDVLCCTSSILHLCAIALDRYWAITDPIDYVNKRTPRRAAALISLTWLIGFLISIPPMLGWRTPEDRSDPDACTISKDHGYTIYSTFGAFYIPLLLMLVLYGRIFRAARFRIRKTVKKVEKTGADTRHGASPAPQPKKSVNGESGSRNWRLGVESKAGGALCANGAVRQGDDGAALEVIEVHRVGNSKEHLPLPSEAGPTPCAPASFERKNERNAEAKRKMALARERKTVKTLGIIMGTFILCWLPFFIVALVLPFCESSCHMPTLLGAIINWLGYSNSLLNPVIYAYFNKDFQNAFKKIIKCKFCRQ
Briefly: Displacement of [3H]-8-OHDPAT from recombinant human 5HT1A receptor expressed in HEK293 cells measured after 1 hr by microbeta counting method.

The target in assay [2] is 5-hydroxytryptamine receptor 6 (Homo sapiens, UniProt P50406). Briefly: Displacement of [3H]-LSD from recombinant human 5HT6 receptor expressed in HEK293 cells measured after 1 hr by microbeta counting method. (In general: Loss of bound radioactivity is the signal in a displacement assay; it reports binding, not function.)
For assay [3], the target named is 5-hydroxytryptamine receptor 7 (Homo sapiens, UniProt P34969). In words: Displacement of [3H]-5-CT from recombinant human 5HT7B receptor expressed in HEK293 cells measured after 1 hr by microbeta counting method.
In assay [4] the target is 5-hydroxytryptamine receptor 2A (Homo sapiens, UniProt P28223). In words: Displacement of [3H]-ketanserin from recombinant human 5HT2A receptor expressed in CHOK1 cells measured after 1 hr by microbeta counting method.
Sequence of 5-hydroxytryptamine receptor 2A (P28223 whole entry): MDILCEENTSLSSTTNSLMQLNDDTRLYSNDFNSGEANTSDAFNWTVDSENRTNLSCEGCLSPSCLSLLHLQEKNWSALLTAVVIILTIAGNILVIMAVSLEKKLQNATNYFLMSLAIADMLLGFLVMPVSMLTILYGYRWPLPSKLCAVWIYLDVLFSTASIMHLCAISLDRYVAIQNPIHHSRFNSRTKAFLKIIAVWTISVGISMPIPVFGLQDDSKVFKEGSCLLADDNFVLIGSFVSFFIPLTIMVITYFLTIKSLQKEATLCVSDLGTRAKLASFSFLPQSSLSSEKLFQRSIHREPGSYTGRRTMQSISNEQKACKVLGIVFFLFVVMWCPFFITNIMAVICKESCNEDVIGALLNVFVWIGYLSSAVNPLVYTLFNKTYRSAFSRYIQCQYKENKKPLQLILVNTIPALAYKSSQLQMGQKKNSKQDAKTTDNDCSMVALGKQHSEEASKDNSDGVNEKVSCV

Sequence of 5-hydroxytryptamine receptor 7 (P34969 whole entry): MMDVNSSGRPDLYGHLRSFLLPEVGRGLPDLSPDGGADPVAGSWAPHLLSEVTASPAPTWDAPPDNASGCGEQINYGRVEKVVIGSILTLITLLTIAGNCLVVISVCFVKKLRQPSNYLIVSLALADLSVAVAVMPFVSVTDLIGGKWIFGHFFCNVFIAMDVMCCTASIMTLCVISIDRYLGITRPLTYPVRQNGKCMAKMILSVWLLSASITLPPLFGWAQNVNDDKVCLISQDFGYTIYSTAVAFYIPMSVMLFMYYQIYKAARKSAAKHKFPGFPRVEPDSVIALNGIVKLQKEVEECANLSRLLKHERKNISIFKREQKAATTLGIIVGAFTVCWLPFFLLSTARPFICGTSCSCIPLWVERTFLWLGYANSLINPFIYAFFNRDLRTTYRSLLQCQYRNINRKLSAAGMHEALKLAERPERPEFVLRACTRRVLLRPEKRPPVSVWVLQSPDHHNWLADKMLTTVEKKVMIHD
Sequence of D(2) dopamine receptor (P14416 whole entry): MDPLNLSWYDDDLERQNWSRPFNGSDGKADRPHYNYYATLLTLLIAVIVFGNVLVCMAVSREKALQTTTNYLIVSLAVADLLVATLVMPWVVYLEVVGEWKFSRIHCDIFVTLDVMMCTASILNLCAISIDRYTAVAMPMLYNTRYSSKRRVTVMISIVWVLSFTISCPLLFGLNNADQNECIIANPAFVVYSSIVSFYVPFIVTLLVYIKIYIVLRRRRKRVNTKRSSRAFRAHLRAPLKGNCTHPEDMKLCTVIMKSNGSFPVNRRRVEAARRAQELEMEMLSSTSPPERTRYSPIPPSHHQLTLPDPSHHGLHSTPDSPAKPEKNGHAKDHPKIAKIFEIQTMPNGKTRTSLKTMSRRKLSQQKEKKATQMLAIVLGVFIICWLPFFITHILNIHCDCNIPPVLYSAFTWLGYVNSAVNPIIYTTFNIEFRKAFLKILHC
Sequence of 5-hydroxytryptamine receptor 6 (P50406 whole entry): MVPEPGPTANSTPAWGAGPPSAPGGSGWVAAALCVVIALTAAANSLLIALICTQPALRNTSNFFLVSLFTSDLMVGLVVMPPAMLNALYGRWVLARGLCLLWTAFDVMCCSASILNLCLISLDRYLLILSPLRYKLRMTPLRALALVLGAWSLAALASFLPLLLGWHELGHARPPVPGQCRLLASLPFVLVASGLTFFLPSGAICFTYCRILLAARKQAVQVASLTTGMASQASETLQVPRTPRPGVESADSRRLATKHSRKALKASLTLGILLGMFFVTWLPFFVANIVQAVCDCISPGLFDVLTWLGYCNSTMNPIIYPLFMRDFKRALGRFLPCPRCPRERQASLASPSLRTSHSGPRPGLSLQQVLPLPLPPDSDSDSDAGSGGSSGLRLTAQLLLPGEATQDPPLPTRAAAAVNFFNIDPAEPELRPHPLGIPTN

As to `O=S1(=O)c2cccc3cccc(c23)N1CCCCCCN1CCN(c2ccccn2)CC1`, the inhibition constant Ki amounted to 118 nM on D(2) dopamine receptor; 35 nM in assay [1]; 182 nM in assay [2]; 344 nM in assay [3]; 443 nM in assay [4].

For the compound `COc1ccccc1N1CCN(CCCCCCN2C(=O)c3cccc4cccc(c34)C2=O)CC1`, the Ki on D(2) dopamine receptor stood at 10 nM; in assay [1], 20 nM; in assay [2], 671 nM; in assay [3] it was 266 nM; in assay [4] it was 337 nM.

On to `CCOc1ccccc1N1CCN(CCCCCCN2C(=O)c3cccc4cccc2c34)CC1`, for which the inhibition constant (Ki) on D(2) dopamine receptor was 11 nM; in assay [1], 22 nM; in assay [2], 1920 nM; in assay [3] it was 84 nM; in assay [4], 717 nM.

As for `COc1cccc(N2CCN(CCCCCCN3C(=O)c4cccc5cccc(c45)C3=O)CC2)c1`, the Ki on D(2) dopamine receptor was 271 nM; in assay [1] it was 47 nM; in assay [2], 347 nM; in assay [3], 371 nM; in assay [4], 334 nM.

Turning to `COc1ccccc1N1CCN(CCCCCCn2c(=O)n3c4c(cccc42)CCC3)CC1`, the Ki on D(2) dopamine receptor worked out at 2 nM; in assay [1] it was 19 nM; in assay [2], 3270 nM; in assay [3], 291 nM; in assay [4], 456 nM.

Take `CCOc1ccccc1N1CCN(CCCCCCN2C(=O)c3cccc4cccc(c34)C2=O)CC1`: the Ki at D(2) dopamine receptor is 27 nM; in assay [1], 28 nM; in assay [2], 246 nM; in assay [3], 73 nM; in assay [4] it was 461 nM.

As for `O=C1c2cccc3cccc(c23)N1CCCCCCN1CCN(c2ccccc2[N+](=O)[O-])CC1`, the inhibitory constant (Ki) was 431 nM at D(2) dopamine receptor; 9470 nM in assay [1]; 952 nM in assay [2]; 696 nM in assay [3]; 3980 nM in assay [4].

For `COc1cccc(N2CCN(CCCCCCN3C(=O)c4cccc5cccc3c45)CC2)c1`, the Ki on D(2) dopamine receptor was 114 nM; in assay [1], 47 nM; in assay [2], 1700 nM; in assay [3], 366 nM; in assay [4], 652 nM.

Turning to `O=[N+]([O-])c1ccccc1N1CCN(CCCCCCN2c3cccc4cccc(c34)S2(=O)=O)CC1`, the Ki at D(2) dopamine receptor is 264 nM; in assay [1] it was 482 nM; in assay [2], 494 nM; in assay [3], 822 nM; in assay [4], 533 nM.

`O=C1c2cccc3cccc(c23)C(=O)N1CCCCCCN1CCN(c2ccccc2[N+](=O)[O-])CC1`: the Ki on D(2) dopamine receptor amounted to 141 nM; in assay [1], 373 nM; in assay [2], 1410 nM; in assay [3], 710 nM; in assay [4], 1920 nM.

`CCOc1ccccc1N1CCN(CCCCCCN2c3cccc4cccc(c34)S2(=O)=O)CC1`: the inhibitory constant (Ki) on D(2) dopamine receptor came to 30 nM; in assay [1], 48 nM; in assay [2], 476 nM; in assay [3] it was 34 nM; in assay [4] it was 578 nM.

With `COc1ccc(N2CCN(CCCCCCN3C(=O)c4cccc5cccc3c45)CC2)cc1`, the inhibitory constant (Ki) on D(2) dopamine receptor came out at 180 nM; in assay [1], 291 nM; in assay [2], 3670 nM; in assay [3], 3740 nM; in assay [4] it was 1930 nM.

Take `O=C1c2cccc3cccc(c23)N1CCCCCCN1CCN(c2cccc3cccnc23)CC1`: the Ki at D(2) dopamine receptor was found to be 82 nM; in assay [1], 22 nM; in assay [2], 999 nM; in assay [3], 119 nM; in assay [4], 222 nM.

With `O=C1c2cccc3cccc(c23)C(=O)N1CCCCCCN1CCN(c2ccccn2)CC1`, the inhibitory constant (Ki) stood at 1300 nM at D(2) dopamine receptor; 172 nM in assay [1]; 1970 nM in assay [2]; 1200 nM in assay [3]; 563 nM in assay [4].

In the case of `O=C1c2cccc3cccc(c23)N1CCCCCCN1CCN(c2ncccn2)CC1`, the Ki on D(2) dopamine receptor was determined as 188 nM; in assay [1], 94 nM; in assay [2], 5250 nM; in assay [3], 475 nM; in assay [4], 43 nM.

Take `O=C1c2cccc3cccc(c23)N1CCCCCCN1CCN(c2ccccn2)CC1`: the Ki at D(2) dopamine receptor amounted to 867 nM; in assay [1], 32 nM; in assay [2], 1460 nM; in assay [3] it was 184 nM; in assay [4] it was 892 nM.

Regarding `COc1ccc(N2CCN(CCCCCCN3C(=O)c4cccc5cccc(c45)C3=O)CC2)cc1`, the Ki on D(2) dopamine receptor stood at 40000 nM; in assay [1], 3570 nM; in assay [2] it was 5760 nM; in assay [3] it was 116000 nM; in assay [4], 60100 nM.
